Experimental data reported in US12629379B2, “Pharmaceutical composition for preventing, suppressing, or treating symptom associated with allergic reaction” (Nippon Chemiphar Co., Ltd., priority 2020, dated 2026).

Tests used:
PSA model mice = assay: Passive systemic anaphylaxis (PSA) in IgE-sensitized mice, body temperature change; type: in vivo; settings: for body temperature decrease-suppressing effect: 10 mg/kg intraperitoneally before tail vein DNP-HSA, vs vehicle group
Procedure: The mice were sensitized by tail vein administration of 10 μg/200 μL IgE (physiological saline) under anesthesia.
Male C57BL/6J mice (7 to 8 or 10 to 11 weeks old, produced by Japan SLC, Inc) were used as the mice.
The DNP-HSA administration was arranged to be performed 24 hours after the preparation of the IgE-sensitized mice.
Moreover, with the rest of the IgE-sensitized mice, a group administered with physiological saline as a control for Compound A (vehicle group) and a group administered with the solvent B as a control for Compound B (vehicle group) were prepared.
PSA model mice were prepared, and anaphylaxis was induced by tail vein administration of 100 ng/200 μL (physiological saline) DNP-HSA to unanesthetized mice 24 hours after the preparation of the IgE-sensitized mice.
Inducing systemic anaphylaxis causes a rapid decrease in the body temperatures of the PSA model mice.
The measurement of the body temperature change was performed by measuring, with BAT-7001H Thermometer (Physitemp Instruments, LLC.), the rectal temperatures every 5 minutes from 0 minutes to 60 minutes after the administration, the 0 minutes being defined as the time of the DNP-HSA administration.

[1] = system: IgE-sensitized bone marrow-derived mast cells (BMMCs); assay: Degranulation reaction (β-hexosaminidase release rate) of IgE-sensitized BMMCs costimulated with DNP-HSA and ATP; type: cell-based, mice; settings: for β-hexosaminidase release rate compared to the control BMMCs / β-hexosaminidase release rate compared to the control BMMCs (dose dependence): group (4): costimulation with ATP and DNP-HSA (10 ng/ml); for β-hexosaminidase release rate compared to the control BMMCs (dose dependence): preincubation with compound 1, 3, 10 μM
Procedure: (§1) The degranulation reaction was performed by obtaining a degranulation rate using a β-hexosaminidase release rate as an index. The β-hexosaminidase release rate was measured as in the section (Degranulation Experiment) below.
Bone marrow was collected from femora of male C57BL/6J mice (7 to 8 weeks old, produced by Japan SLC, Inc). Red blood cells were hemolyzed, and culture was performed in a medium containing 10% fetal bovine serum (FBS), penicillin (100 unit/ml), streptomycin (100 μg/ml), and recombinant mouse IL-3 (10 ng/ml, manufactured by PeproTech, Inc.) for 14 days. Stem cell factor (SCF) (10 ng/ml) was added to the medium from Day 15, and the culture was performed for 35 to 42 days to be used for the experiment. Whether the cells were differentiated into mast cells was confirmed by the degrees the of c-KIT and FcεRI expressions. The confirmation was performed by using FACSCant II (manufactured by BD Biosciences).
(§2) Anti-DNP-IgE antibody (clone: SPE-7, manufactured by Sigma-Aldrich, Inc.) was added to the BMMC culture solution so that the concentration reached 50 ng/ml, and the BMMCs were sensitized overnight. To be used in the experiment, the BMMCs were washed with PBS(−) and suspended in Krebs Ringer-HEPES Buffer (NaCl 130 mM, KCl 4.7 mM, NaHCO34.0 mM, KH2P4 1.2 mM, Glucose 11.5 mM, HEPES 10 mM, and CaCl2·H2O 1.8 mM) so that the concentration reached 1×10^6 cell/ml.
Then, the BMMCs were each set up into the following 4 groups. • (1) A group in which nothing was added to the BMMCs, • (2) a group in which only ATP was added to the BMMCs, • (3) a group in which only DNP-HSA (10 ng/ml) was added to the BMMCs as an antigen, and • (4) a group in which a mixed solution of ATP and DNP-HSA (10 ng/ml) was added to the BMMCs at once.
Each of the 4 groups was stimulated at 37° C. for 5 minutes and rapidly cooled on ice, and then centrifugation was performed to stop the reaction. After collecting the supernatant, precipitated cells were lysed with 0.1% triton X-100. The supernatant and the cell lysis solution (50 μL) were mixed with 10 mM 4-Nitrophenyl N-acetyl-p-D-glucosaminide (manufactured by Sigma-Aldrich, Inc.) which was a β-hexosaminidase substrate/50 mM citrate buffer (pH 4.5, 50 μL), and the mixture was incubated at 37° C. for 30 minutes. 50 mM carbonate buffer (pH 10.0, 100 μL) was added to stop the reaction, and absorbance was measured at 405/655 using an absorbance microplate reader Sunrise (manufactured by Tecan Trading AG). The β-hexosaminidase release rate was obtained from the following formula. β-hexosaminidase release rate=Absorbance of supernatant/(Absorbance of supernatant+absorbance of cell lysis station)×100
Note that, in the present Example, the numbers of specimens were all n=3, and the significant differences in the present Example are indicated with “*” or “**” in FIGS. 1 and 2, “*” indicating P<0.05, and “**” P<0.01. In addition, “*” or “**” in FIGS. 1 and 2 each indicate that there was a significant difference as a result of comparison with the control in the same group.

PCA model mice = assay: Passive cutaneous anaphylaxis (PCA) in IgE-sensitized mice, Evans blue in the auricle; type: in vivo
Procedure: The mice were sensitized by subcutaneously administering 100 ng/20 μL IgE into the right ears under anesthesia. Only physiological saline was administered into the left ears.
Male C57BL/6J mice (10 to 11 weeks old, produced by Japan SLC, Inc) were used as the mice.
Note that the DNP-HSA administration was performed by tail vein administration and was arranged to be performed 24 hours after the preparation of the IgE-sensitized mice.
Note that the concentration of 65% Kolliphor EL was prepared using ethanol and a small amount of sterile water for injection (or water). In addition, the DNP-HSA administration was arranged to be performed 24 hours after the preparation of the IgE-sensitized mice.
Moreover, with the rest of the IgE-sensitized mice, a group administered with physiological saline as a control for Compound A (vehicle group) and a group administered with the solvent B as a control for Compound B (vehicle group) were prepared. […]
The PCA model mice were euthanized 30 minutes after the DNP-HSA administration, the auricles were collected, and the weights of the auricles were measured. […] Absorbance (620 nm) of the extracted Evans blue and the calibration curve was measured using the absorbance microplate reader Sunrise (Tecan Trading AG), and the concentrations were calculated.

IgE-sensitized BMMCs = assay: Degranulation reaction (β-hexosaminidase release rate) of IgE-sensitized BMMCs costimulated with PGE2 and ATP; type: cell-based, mice
Procedure: as §1
Setting up of BMMCs was performed according to the method described in Example 2.
as §2, with “NaHCO3 4.0” for “NaHCO34.0”
Then, the BMMCs were each set up into the following 6 groups. Note that the numbers in the parentheses below match the numbers in parentheses in FIG. 6. • (1) A group in which nothing was added to the BMMCs, • (2) a group in which only ATP was added to the BMMCs, • (3) a group in which only PGE2 (1 μM) was added to the BMMCs, • (4) a group in which a mixed solution of ATP and PGE2 (1 μM) was added to the BMMCs at once, • (5) a group in which only DNP-HSA (10 ng/ml) was added to the BMMCs as an antigen, and • (6) a group in which a mixed solution of ATP and DNP-HSA (10 ng/ml) was added to the BMMCs at once.
Each of the 6 groups was stimulated at 37° C. for 5 minutes and rapidly cooled on ice, and then centrifugation was performed to stop the reaction. After collecting the supernatant, precipitated cells were lysed with 0.1% triton X-100. […] 50 mM carbonate buffer (pH 10.0, 100 μL) was added to stop the reaction, and absorbance was measured at 405/655 using an absorbance microplate reader Sunrise (manufactured by Tecan Trading AG). The β-hexosaminidase release rate was obtained from the following formula. β-hexosaminidase release rate=Absorbance of supernatant/(Absorbance of supernatant+absorbance of cell lysis station)×100 (Test Result) […]

BMMCs = assay: IL-6, IL-13 and TNF-α release by stimulated BMMCs (ELISA); type: cell-based, mice; settings: 10 μM, pretreatment 5 minutes; stimulation 3 hours
Procedure: BMMCs were washed with a fresh culture solution and subjected to reactions in the presence and absence of a stimulating agent (100 μM ATP, 1 μM PGE2, 100 μM ATP+1 μM PGE2) for 3 hours.
The grouping is as shown below and matches the numbers in parentheses indicated in FIGS. 7 to 9. • (1) A group in which nothing was added to the BMMCs, • (2) a group in which only ATP was added to the BMMCs, • (3) a group in which only PGE2 was added to the BMMCs, and • (4) a group in which a mixed solution of ATP and PGE2 was added to the BMMCs at once.
Cytokines released into the reaction solution (interleukin (IL)-6, IL-13, and TNF-α) were measured using ELISA kits (Invitrogen Corporation).

[2] = 10 mg/kg intraperitoneally 30 minutes before DNP-HSA

Structure (SMILES) | body temperature decrease-suppressing effect (PSA model mice) | β-hexosaminidase release rate compared to the control BMMCs ([1]; concentrations of 3 μM and 10 μM) | β-hexosaminidase release rate compared to the control BMMCs (dose dependence) [1] | increase in Evans Blue per auricle weight (PCA model mice; 10 mg/kg intraperitoneally 1 hour before tail vein DNP-HSA, vs vehicle group) | increase in Evans Blue per auricle weight (PCA model mice; 10 mg/kg orally administered, not shown in the drawing) | β-hexosaminidase release rate compared to the control BMMCs (IgE-sensitized BMMCs; group (4): costimulation with ATP (0.1 mM) and PGE2 (1 μM), all concentrations of 1 μM, 3 μM, and 10 μM) | β-hexosaminidase release rate compared to the control BMMCs (dose dependence) (IgE-sensitized BMMCs; group (4): costimulation with ATP (0.1 mM) and PGE2 (1 μM), preincubation with compound 1, 3, 10 μM) | β-hexosaminidase release rate (IgE-sensitized BMMCs; groups (1) to (3) not subjected to costimulation with ATP (0.1 mM) and PGE2, compound 1, 3 or 10 μM) | persistence of the body temperature decrease-suppressing effect (PSA model mice; [2]) [min] | time over which there was a significant difference in the body temperature decrease-suppressing effect (PSA model mice; [2]) | β-hexosaminidase release rate compared to the control BMMCs ([1]; all concentrations of 1 μM, 3 μM, and 10 μM) | β-hexosaminidase release rate ([1]; groups (1) to (3) not subjected to costimulation with ATP and DNP-HSA (10 ng/ml), compound 1, 3 or 10 μM) | ATP-induced increase in IL-6 release (BMMCs) | ATP-induced increase in IL-13 release (BMMCs) | ATP-induced increase in TNF-α release (BMMCs)
O=C1CC(=O)N(c2ccc(NC(=O)c3ccccc3I)cc2)c2ccc3ccccc3c2N1 [Compound B48, 5-[4-(2-iodobenzoylamino)phenyl]-1H-naphtho[1,2-b][1,4]diazepine-2,4(3H,5H)-dione] | significant body temperature decrease-suppressing effect | significantly decreased | decreased in a dose-dependent manner | significantly suppressed | significantly suppressed | – | – | – | – | – | – | – | – | – | –
O=C1CC(=O)N(c2cccc(-c3noc(=S)[nH]3)c2)c2ccc3ccccc3c2N1.[Na] [Compound A17, 5-[3-(5-thioxo-4H-[1,2,4]oxadiazol-3-yl)phenyl]-1H-naphtho[1,2-b][1,4]diazepine-2,4(3H,5H)-dione sodium salt] | significant body temperature decrease-suppressing effect | – | decreased in a dose-dependent manner | – | – | significantly decreased | decreased in a dose-dependent manner | lower than 5% | > 60 | at least 35 minutes | significantly decreased | lower than 10% | suppressed | suppressed | suppressed
